Measurements from patent US8492521B2, “Oxidative stress responsive apoptosis inducing protein eIF5A” (priority 2008, dated 2013).

Tests used:
[1] = tested on: rat myocardial ischemia/reperfusion injury; test: Rat myocardial ischemia/reperfusion injury, extent of myocardial infarction (TTC staining); assay type: in vivo; settings: 1 mg/kg everyday, peritoneal, five days to the day before; 30 min ischemia, 24 hours reperfusion; control group approx. 35.6%
Protocol: Rats (male, 250 to 280 g) were subjected to coronary artery ligation according to J. Pathol. 180, 305-310 (1996). Briefly, rats were anesthetized with sodium pentobarbital (40 mg Kg^−1, intraperitoneally), intubated, and ventilated with room air (tidal volume, 20 ml/Kg, […]) with a respirator (SN-480-7, Shinano Manufacturing Co., Ltd., Tokyo, Japan). After lateral thoracotomy and pericardiectomy, a 6-0 silk stitch was placed near the intramyocardial location of the left coronary artery beneath the left atrial appendage. Coronary artery occlusion was performed by pressing a short length of tube over the ends of the suture and clamping it firmly against the heart. Reperfusion was achieved by removing the clamp. The standard limb lead II electrocardiogram was monitored continuously. The ischemia and reperfusion of the regional myocardium were confirmed by following the changes of the ST segment level on the electrocardiogram and observing the change in the color of the myocardium.
eIF5A is deoxyhypusinated by deoxyhypusine synthase (DHS) in the cytoplasm (deoxyhypusine eIF5A) and then hypusinated by deoxyhypusine hydroxylase (DOHH) (hypusinated eIF5A). eIF5A is further secreted extracellularly by an oxidative stress stimulus as secreted eIF5A and acquire the apoptosis-inducing activity. […]

[2] = tested on: cultured cardiac myocytes; test: Induction of apoptosis of cultured cardiac myocytes by recombinant eIF5A proteins (TUNEL / cardiac myosin double staining); assay type: cell-based, rat; settings: recombinant protein 10 μg/mL
[3] = tested on: cultured cardiac myocytes; test: Release of cytochrome c from mitochondria (Western blot of cytosolic fraction); assay type: cell-based, rat; settings: peak at 48 hours
Protocol: Cultured cardiac myocytes were treated with a recombinant eIF5A for a predetermined time. Nucleic, mitochondrial, and cytosolic fraction of the cells were prepared as described in Non Patent Literatures 1 and 2. Briefly, 3×10^6 cells were washed in PBS, and suspended in 250 μl of a lysis buffer (250 mM sucrose, 50 mM Pipes/KOH, pH7.4, 50 mM KCl, 5 mM EGTA, 2 mM MgCl2, 1 mM DTT, and 1 mM PMSF). After 30 min on ice, the cells were lysed with 40 strokes using pestle B in a Dounce homogenizer, and centrifuged at 80 g for 10 min. The pellets were collected as the nucleic fraction. Then, the supernatants were prepared from cell lysates by centrifugation at 20,000 g for 20 min. The pellets were collected as the mitochondrial fraction, and the supernatants were regarded as the cytosolic fraction. The nucleic, mitochondrial, and cytosolic fractions were subjected to Western blot analysis with rabbit anti-AIF mAb (E20; Epitomics Inc., CA, USA) or mouse anti-cytochrome c mAb (7H, 8.2; C12; Lab Vision Corp., CA, USA). The antibody-antigen complexes were developed with a chemiluminescence system using alkalinephosphatase (New England Biolabs, Inc.).

[4] = tested on: human hepatocellular carcinoma cells (ATCC; HB-8064); test: Apoptosis induction by recombinant eIF5A (TUNEL), hepatocellular carcinoma cells; assay type: cell-based; settings: 10 μg/ml, 30 to 36 hours
Protocol: (§1) Quail muscle cells (ATCC; CRL-1962), HeLa cells, human hepatocellular carcinoma cells (ATCC; HB-8064), and human glioblastoma cells (ATCC; CRL-1690) were incubated on a culture slide (BD Falcon) until they were confluent. These cells were treated with a recombinant eIF5A (10 μg/ml) for a predetermined time and fixed. Terminal deoxynucleotidyl transferase nick-end-labeled (TUNEL) staining was performed in situ with an Apoptosis Detection Kit (Takara Bio Inc.).

cardiac myocytes = test: Electron microscopy of nuclear chromatin in cardiac myocytes; assay type: cell-based, rat
Protocol: The cardiac myocytes were treated with recombinant eIF5A for a predetermined period. The cells were fixed in 2% glutaraldehyde, postfixed in 2% osmium tetraoxide, dehydrated in ethanol, and embedded in a resin. Ultrathin section were prepared, stained with uranyl acetate and lead citrate, and examined with an electron microscope (H-7000, HITACHI, Japan).

[5] = tested on: cultured cardiac myocytes; test: Annexin V staining of cultured cardiac myocytes; assay type: cell-based, rat
Protocol: Cardiac myocytes were treated with a recombinant eIF5A (RCP) for a predetermined time. The cells were incubated with biotinylated-annexin V in 1× binding buffer (Annexin V-Biotin Apoptosis Detection Kit, BioVision Inc.) for 5 min and then fixed with 2% paraformaldehyde in PBS for 15 min. After washing in PBS, the cells were incubated with streptavidin-horseradish peroxidase (Vector) for 30 min. The subsequent procedures for immunofluorescence by TSA technology were the same as for AIF. To distinguish cardiac myocytes from non-muscle cells, cells were further incubated with mouse anti-cardiac myosin (clone CMA19) mAb (Non Patent Literature 1), followed by incubation with tetramethyl rhodamine isothiocyanate (TRITC)-conjugated anti-mouse IgG antibody, and then photographed in a fluorescence microscope.

Hela cells = test: Apoptosis induction by recombinant eIF5A (TUNEL), HeLa cells; assay type: cell-based, human; settings: 10 μg/ml, 30 to 36 hours
Protocol: as §1

[6] = tested on: cultured cardiac myocytes; test: Subcellular translocation of apoptosis-inducing factor (AIF) in cultured cardiac myocytes; assay type: cell-based, rat; settings: double staining for AIF and Hoechst 33342
Protocol: Tyramide Signal Amplification (TSA) technology was used for fluorescence (TSA™ Biotin System, NEN Life Science Products, PerkinElmer; according to the manufacture's instruction). Cardiac myocytes were treated with a recombinant eIF5A (RCP) for a predetermined time and fixed with 4% paraformaldehyde in PBS for 15 min. The cells were washed with PBS and then incubated with rabbit anti-AIF mAb (E20; Epitomics Inc.) for 1 hour. The cells were washed, then incubated with biotinylated anti-rabbit IgG antibody (Chemicon International, Inc.) for 1 hour, washed, and incubated with streptavidin-horseradish peroxidase (Vector) for 30 min. The cells were washed in TNT buffer (0.1 M Tris-HCl, pH 7.5, 0.15 M NaCl, 0.05% Tween 20) and then incubated with biotinylated-tyramide for appropriate time (3 to 10 min). The cells were washed in TNT buffer and then incubated with FITC-labeled avidin-D (Vector) for 30 min. Nuclei were stained with 1 μg·mL^−1 Hoechst 33342 (DOJINDO Laboratories, Kumamoto, Japan). Confocal laser microscopy was performed on LSM510 Laser Scanning Microscope (Zeiss).

[7] = tested on: Quail muscle cells (ATCC; CRL-1962); test: Apoptosis induction by recombinant eIF5A (TUNEL), quail muscle cells; assay type: cell-based; settings: 10 μg/ml, normal cells, up to 72 hours
Protocol: as §1

[8] = tested on: human glioblastoma cells (ATCC; CRL-1690); test: Apoptosis induction by recombinant eIF5A (TUNEL), glioblastoma cells; assay type: cell-based; settings: 10 μg/ml, 30 to 36 hours
Protocol: as §1

[9] = tested on: cultured cardiac myocytes; test: Activation of caspase-3 (Western blot); assay type: cell-based, rat; settings: peak at 48 hours

Compound | extent of myocardial infarction [1] | induction of apoptosis of cultured cardiac myocytes (TUNEL and cardiac myosin double staining) [2] | cytosolic fractions of cytochrome c [3] | induction of apoptosis (TUNEL staining) [4] | nuclear chromatin by electron microscopy (cardiac myocytes) | induction of apoptosis by Annexin-V staining [5] | induction of apoptosis (TUNEL staining) (Hela cells) | translocation of the apoptosis-inducing factor (AIF) from the cytosol (mitochondria) to the nucleus [6] | induction of apoptosis (TUNEL staining) [7] | induction of apoptosis (TUNEL staining) [8] | active form of caspase-3 [9]
N=C(N)NCCCCCCCN [GC7, N1-guanyl-1,7-diaminoheptane] | approx. 13.4% |  |  |  |  |  |  |  |  |  | 
recombinant eIF5A (RCP): FLAG- and His-tagged human eIF5A collected from reoxygenation-conditioned PBS of transfected quail muscle cells; secreted form |  | potently induced apoptosis | markedly increased | induced apoptosis | hypercondensation of nuclear chromatins | further confirmed | induced apoptosis | induced translocation | not induced until 72 hours | induced apoptosis | markedly increased
